The values that follow come from patent US20100120700A1, “METHODS AND COMPOSITIONS FOR TREATING CERVICAL CANCER” (priority 2000, published 2010).

One assay has as its system human PDZ domains. Briefly: G assay, E6 PL peptides against PDZ domain panel. Conditions: value names the PDZ domain(s) that saturated binding with the E6 peptide; signal classes (A450 nm 3-4 or 4). How it is done: (1) A PDZ-domain polypeptide is bound to a surface, e.g. a protein binding surface. In a preferred embodiment, a GST/PDZ fusion protein containing one or more PDZ domains is bound to a polystyrene 96-well plate. […] In one embodiment, the GST/PDZ fusion protein is bound via an anti-GST antibody that is coated onto the 96-well plate. Adequate binding to the plate can be achieved when: • a. 100 uL per well of 5 ug/mL goat anti-GST polyclonal antibody (Pierce) in PBS is added to a polystyrene 96-well plate (e.g., Num Polysorb) at 4° C. for 12 hours. • b. The plate is blocked by addition of 200 uL per well of PBS/BSA for 2 hours at 4° C. • c. The plate is washed 3 times with PBS. • d. […]
(3) The binding of the biotinylated peptide to the GST/PDZ fusion protein surface can be detected using a variety of methods and detectors known to one of skill in the art. […] The reaction of the HRP and its substrate is terminated by addition of 100 uL per well of 1M sulfuric acid, and the absorbance of each well of the plate is read at 450 nm.
(4) Specific binding of a PL peptide and a PDZ domain polypeptide is determined by comparing the signal from the well(s) in which the PL peptide and PDZ domain polypeptide are combined, with the background signal(s). […]

The target of the next assay is T1, TIP1 (Homo sapiens, UniProt O14907).
T1 construct: made in house; host or cells: E. coli (DH5alpha, BL21 or JM109)
Put plainly: G assay peptide titration (EC50). The class given is binding. To be noted: E6 peptide titrated against constant GST-PDZ.

“Also recorded” adds a separate entry of the source.

A word on the EC50: it is the concentration giving half of the maximal effect.

T1 sequence (O14907 14-116): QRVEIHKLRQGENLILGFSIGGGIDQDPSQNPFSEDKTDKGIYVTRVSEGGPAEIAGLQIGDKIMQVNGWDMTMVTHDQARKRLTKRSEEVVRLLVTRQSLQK
Experimental for TIP1: (1) A GST/PDZ fusion protein, as well as GST alone as a negative control, are bound to a surface (e.g., a 96-well plate) and the surface blocked and washed as described supra for the “G” assay.
(2) 50 uL per well of a solution of biotinylated PL peptide (e.g. as shown in TABLE 2) is added to the surface in increasing concentrations in PBS/BSA (e.g. at 0.1 uM, 0.33 uM, 1 uM, 3.3 uM, 10 uM, 33 uM, and 100 uM). In one embodiment, the PL peptide is allowed to react with the bound GST/PDZ fusion protein (as well as the GST alone negative control) for 10 minutes at 4° C. followed by 20 minutes at 25° C. The plate is washed 3 times with ice cold PBS to remove unbound labeled peptide.
(3) The binding of the PL peptide to the immobilized PDZ-domain polypeptide is detected as described supra for the “G” assay.
(4) For each concentration of peptide, the net binding signal is determined by subtracting the binding of the peptide to GST alone from the binding of the peptide to the GST/PDZ fusion protein. […]
Relative binding affinities for the 14 most significant interactions with different PDZ domains were determined by E6 peptide titrations.

For the substance “20 mer peptide corresponding to the C-terminus of HPV16 E6 (PDZ ligand), biotinylated in binding assays; ends SSRTRRETQL (SEQ ID NO: 13) [HPV E6 #16]”, in the assay with human PDZ domains, the “PDZ binding partner (signal 4 and 5 of 0-5)” value is on record as “TIP-1; also recorded: Magi1 (PDZ #2)”. On TIP1, this substance returned a concentration for a half-maximal effect (EC50) of 0.75 µM.
